For four molecules, relative viability results are on record in the supplement of paper PMC10307832.

For the first assay, the system named is ChaGo-K-1. Kind of assay: relative viability (nuclei count vs DMSO), 5 days (fraction); higher = more cells survive. The settings on record: first compound 0.2 µM. A digest of the protocol:
(§1)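 Five library-drug doses in √10 steps were combined with a fixed anchor-drug dose, or a single drug was given alone, by pin tool to lung cancer cell lines in 1536-well plates the day after seeding. Nuclei were stained and counted after 5 days. Relative viability is the nuclei count in treated wells over that in vehicle wells, taken as the median of duplicate plates.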
In turn, `COCC1(CO)C(=O)C2CCN1CC2` (configuration not stated) [PRIMA-1MET] + CC(C)C[C@H](NC(=O)[C@H](Cc1ccccc1)NC(=O)c1cnccn1)B(O)O [Bortezomib] (partner 0.002 µM) showed a relative viability of 1.21.

The assay is the same for the next values; noted with them: first compound 0.6325 µM.
For the molecule `COCC1(CO)C(=O)C2CCN1CC2` (configuration not stated) [PRIMA-1MET] + CC(C)C[C@H](NC(=O)[C@H](Cc1ccccc1)NC(=O)c1cnccn1)B(O)O [Bortezomib] (partner 0.002 µM), the relative viability came out at 0.83.

The assay is the same for the next values; noted with them: first compound 2 µM.
Molecule `COCC1(CO)C(=O)C2CCN1CC2` (configuration not stated) [PRIMA-1MET] + CC(C)C[C@H](NC(=O)[C@H](Cc1ccccc1)NC(=O)c1cnccn1)B(O)O [Bortezomib] (partner 0.002 µM) displayed a relative viability of 1.28.

The same assay, now with this note: first compound 6.325 µM.
Molecule `COCC1(CO)C(=O)C2CCN1CC2` (configuration not stated) [PRIMA-1MET] + CC(C)C[C@H](NC(=O)[C@H](Cc1ccccc1)NC(=O)c1cnccn1)B(O)O [Bortezomib] (partner 0.002 µM) returned a relative viability of 0.988.

Still in this assay, the particulars now being: first compound 20 µM.
Turning to `COCC1(CO)C(=O)C2CCN1CC2` (configuration not stated) [PRIMA-1MET] + CC(C)C[C@H](NC(=O)[C@H](Cc1ccccc1)NC(=O)c1cnccn1)B(O)O [Bortezomib] (partner 0.002 µM), the relative viability was determined as 0.32.

The subject of a further assay is NCI-H1703. Described as above. The settings on record: first compound 0.2 µM. A digest of the protocol:
as §1
Molecule `COCC1(CO)C(=O)C2CCN1CC2` (configuration not stated) [PRIMA-1MET] + CS(=O)(=O)CCNCc1ccc(-c2ccc3ncnc(Nc4ccc(OCc5cccc(F)c5)c(Cl)c4)c3c2)o1 [Lapatinib] (partner 2 µM) yielded a relative viability of 1.25.

The molecule `COCC1(CO)C(=O)C2CCN1CC2` (configuration not stated) [PRIMA-1MET] + C[C@]1(O)C[C@@H](c2nc(-c3ccc4ccc(-c5ccccc5)nc4c3)c3c(N)nccn32)C1 [Linsitinib] (partner 1 µM) returned a relative viability of 0.25.

For the molecule `COCC1(CO)C(=O)C2CCN1CC2` (configuration not stated) [PRIMA-1MET] + CC(C)C[C@H](NC(=O)[C@H](Cc1ccccc1)NC(=O)c1cnccn1)B(O)O [Bortezomib] (partner 0.002 µM), the relative viability was 0.568.

In turn, `COCC1(CO)C(=O)C2CCN1CC2` (configuration not stated) [PRIMA-1MET] + Cc1nc(NC(=O)N2CCC[C@H]2C(N)=O)sc1-c1ccnc(C(C)(C)C(F)(F)F)c1 [Alpelisib] (partner 2 µM) displayed a relative viability of 0.393.

The same assay, now with this note: first compound 0.6325 µM.
As for `COCC1(CO)C(=O)C2CCN1CC2` (configuration not stated) [PRIMA-1MET] + CS(=O)(=O)CCNCc1ccc(-c2ccc3ncnc(Nc4ccc(OCc5cccc(F)c5)c(Cl)c4)c3c2)o1 [Lapatinib] (partner 2 µM), the relative viability worked out at 0.834.

The molecule `COCC1(CO)C(=O)C2CCN1CC2` (configuration not stated) [PRIMA-1MET] + CC(C)C[C@H](NC(=O)[C@H](Cc1ccccc1)NC(=O)c1cnccn1)B(O)O [Bortezomib] (partner 0.002 µM) returned a relative viability of 0.369.

In turn, `COCC1(CO)C(=O)C2CCN1CC2` (configuration not stated) [PRIMA-1MET] + Cc1nc(NC(=O)N2CCC[C@H]2C(N)=O)sc1-c1ccnc(C(C)(C)C(F)(F)F)c1 [Alpelisib] (partner 2 µM) came in with a relative viability of 0.37.

The same assay, now with this note: first compound 2 µM.
`COCC1(CO)C(=O)C2CCN1CC2` (configuration not stated) [PRIMA-1MET] + CS(=O)(=O)CCNCc1ccc(-c2ccc3ncnc(Nc4ccc(OCc5cccc(F)c5)c(Cl)c4)c3c2)o1 [Lapatinib] (partner 2 µM) displayed a relative viability of 1.01.

As for `COCC1(CO)C(=O)C2CCN1CC2` (configuration not stated) [PRIMA-1MET] + CC(C)C[C@H](NC(=O)[C@H](Cc1ccccc1)NC(=O)c1cnccn1)B(O)O [Bortezomib] (partner 0.002 µM), the relative viability amounted to 0.311.

As to `COCC1(CO)C(=O)C2CCN1CC2` (configuration not stated) [PRIMA-1MET] + Cc1nc(NC(=O)N2CCC[C@H]2C(N)=O)sc1-c1ccnc(C(C)(C)C(F)(F)F)c1 [Alpelisib] (partner 2 µM), the relative viability was found to be 0.318.

The assay is the same for the next values; noted with them: first compound 6.325 µM.
In turn, `COCC1(CO)C(=O)C2CCN1CC2` (configuration not stated) [PRIMA-1MET] + CS(=O)(=O)CCNCc1ccc(-c2ccc3ncnc(Nc4ccc(OCc5cccc(F)c5)c(Cl)c4)c3c2)o1 [Lapatinib] (partner 2 µM) yielded a relative viability of 1.04.

`COCC1(CO)C(=O)C2CCN1CC2` (configuration not stated) [PRIMA-1MET] + C[C@]1(O)C[C@@H](c2nc(-c3ccc4ccc(-c5ccccc5)nc4c3)c3c(N)nccn32)C1 [Linsitinib] (partner 1 µM) came in with a relative viability of 1.29.

As for `COCC1(CO)C(=O)C2CCN1CC2` (configuration not stated) [PRIMA-1MET] + CC(C)C[C@H](NC(=O)[C@H](Cc1ccccc1)NC(=O)c1cnccn1)B(O)O [Bortezomib] (partner 0.002 µM), the relative viability came out at 0.142.

`COCC1(CO)C(=O)C2CCN1CC2` (configuration not stated) [PRIMA-1MET] + Cc1nc(NC(=O)N2CCC[C@H]2C(N)=O)sc1-c1ccnc(C(C)(C)C(F)(F)F)c1 [Alpelisib] (partner 2 µM) came in with a relative viability of 0.436.

Staying with this assay, now noted: first compound 20 µM.
Regarding `COCC1(CO)C(=O)C2CCN1CC2` (configuration not stated) [PRIMA-1MET] + CS(=O)(=O)CCNCc1ccc(-c2ccc3ncnc(Nc4ccc(OCc5cccc(F)c5)c(Cl)c4)c3c2)o1 [Lapatinib] (partner 2 µM), the relative viability was 0.145.

On to `COCC1(CO)C(=O)C2CCN1CC2` (configuration not stated) [PRIMA-1MET] + C[C@]1(O)C[C@@H](c2nc(-c3ccc4ccc(-c5ccccc5)nc4c3)c3c(N)nccn32)C1 [Linsitinib] (partner 1 µM), for which the relative viability was 0.0482.

`COCC1(CO)C(=O)C2CCN1CC2` (configuration not stated) [PRIMA-1MET] + CC(C)C[C@H](NC(=O)[C@H](Cc1ccccc1)NC(=O)c1cnccn1)B(O)O [Bortezomib] (partner 0.002 µM) registered a relative viability of 0.049.

On to `COCC1(CO)C(=O)C2CCN1CC2` (configuration not stated) [PRIMA-1MET] + Cc1nc(NC(=O)N2CCC[C@H]2C(N)=O)sc1-c1ccnc(C(C)(C)C(F)(F)F)c1 [Alpelisib] (partner 2 µM), for which the relative viability came out at 0.0451.

The test system of the next assay is EPLC-272H. Described as above. To be noted: first compound 0.2 µM. Put shortly: as §1
Molecule `COCC1(CO)C(=O)C2CCN1CC2` (configuration not stated) [PRIMA-1MET] + CS(=O)(=O)CCNCc1ccc(-c2ccc3ncnc(Nc4ccc(OCc5cccc(F)c5)c(Cl)c4)c3c2)o1 [Lapatinib] (partner 2 µM) yielded a relative viability of 0.871.

`COCC1(CO)C(=O)C2CCN1CC2` (configuration not stated) [PRIMA-1MET] + C[C@]1(O)C[C@@H](c2nc(-c3ccc4ccc(-c5ccccc5)nc4c3)c3c(N)nccn32)C1 [Linsitinib] (partner 1 µM) displayed a relative viability of 1.26.

The molecule `COCC1(CO)C(=O)C2CCN1CC2` (configuration not stated) [PRIMA-1MET] + CC(C)C[C@H](NC(=O)[C@H](Cc1ccccc1)NC(=O)c1cnccn1)B(O)O [Bortezomib] (partner 0.002 µM) displayed a relative viability of 1.03.

As to `COCC1(CO)C(=O)C2CCN1CC2` (configuration not stated) [PRIMA-1MET] + Cc1nc(NC(=O)N2CCC[C@H]2C(N)=O)sc1-c1ccnc(C(C)(C)C(F)(F)F)c1 [Alpelisib] (partner 2 µM), the relative viability worked out at 1.06.
